According to ChEMBL document CHEMBL1125979, “Phosphinic acid inhibitors of 3-hydroxy-3-methylglutaryl-coenzyme a reductase” (Bioorg Med Chem Lett, 1991):

Legend:
HepG2 [1] = test: The compound was tested for inhibition of cholesterol biosynthesis in human hepatoma G2 cell line; type: functional, cell-based
[2] = target: T1, 3-hydroxy-3-methylglutaryl-coenzyme A reductase (Homo sapiens, UniProt P04035); test: The inhibitory activity against purified recombinant human HMG-CoA reductase was evaluated
T1 sequence (P04035 whole entry): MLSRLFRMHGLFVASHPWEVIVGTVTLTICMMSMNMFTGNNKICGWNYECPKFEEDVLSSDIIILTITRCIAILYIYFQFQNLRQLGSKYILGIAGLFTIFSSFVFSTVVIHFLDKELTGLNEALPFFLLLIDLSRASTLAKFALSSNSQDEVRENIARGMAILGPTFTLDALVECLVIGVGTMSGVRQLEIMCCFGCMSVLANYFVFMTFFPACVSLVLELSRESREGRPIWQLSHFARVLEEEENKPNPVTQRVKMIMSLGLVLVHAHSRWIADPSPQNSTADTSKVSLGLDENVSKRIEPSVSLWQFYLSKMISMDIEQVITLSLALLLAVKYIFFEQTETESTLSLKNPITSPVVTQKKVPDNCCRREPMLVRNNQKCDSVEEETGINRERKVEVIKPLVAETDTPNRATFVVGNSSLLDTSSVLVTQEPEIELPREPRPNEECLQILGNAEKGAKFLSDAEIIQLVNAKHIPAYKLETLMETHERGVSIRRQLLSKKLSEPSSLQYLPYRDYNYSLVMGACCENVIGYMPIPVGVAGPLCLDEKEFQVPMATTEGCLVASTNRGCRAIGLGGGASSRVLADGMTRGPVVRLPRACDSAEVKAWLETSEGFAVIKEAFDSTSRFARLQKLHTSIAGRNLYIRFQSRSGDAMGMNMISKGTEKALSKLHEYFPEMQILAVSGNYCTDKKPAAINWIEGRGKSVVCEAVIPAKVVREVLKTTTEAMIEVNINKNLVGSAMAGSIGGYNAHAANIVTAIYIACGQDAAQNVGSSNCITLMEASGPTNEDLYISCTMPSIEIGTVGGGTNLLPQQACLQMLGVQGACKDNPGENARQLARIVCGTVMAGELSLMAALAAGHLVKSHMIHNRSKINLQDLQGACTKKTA

HepG2 [3] = test: The compound was tested for inhibition of cholesterol biosynthesis in human hepatoma G2 cell line; showed relatively low potency; type: functional, cell-based

SMILES | IC50 (HepG2 [1]) [nM] | Ki [2] [nM] | IC50 (HepG2 [3]) [nM]
COC(=O)CC(O)CP(=O)(O)CCc1c(Cl)cc(Cl)cc1OCc1ccccc1 (stereo not given) | 100 | – | –
O=C(O)C[C@H](O)C[C@H](O)CCc1c(Cl)cc(Cl)cc1OCc1ccccc1 | – | 3 | –
O=C(O)C[C@H](O)CP(=O)(O)CCc1c(Cl)cc(Cl)cc1OCc1ccccc1 | – | 16 | > 1000
CC(C)(C)C(=O)OCOC(=O)CC(O)CP(=O)(CCc1c(Cl)cc(Cl)cc1OCc1ccccc1)OCOC(=O)C(C)(C)C (stereo not given) | 100 | – | –
